IC50 data for 26 compounds are collected here from patent US11485725B2, “Derivatives of piperlongumine and uses thereof” (Auransa Inc., priority 2017, dated 2022).

Usually IC50 stands for the midpoint of a concentration-inhibition curve.

One test relates to MOLP-8. The experiment in a line: In vitro cell viability assay (CellTiter-Glo, ATP levels), multiple myeloma cells. The test is classed as cell-based. To be noted: Homo sapiens, MOLP-8, 168 h, 7-day incubation, CellTiter-Glo, average values; read-out: MOLP-8 IC50. Here is the method:
(§1) In Vitro Cell Viability Assay
(§2) The present disclosure provides a method for inhibiting cell viability, as measured by ATP levels. The method for inhibiting cell viability is drawn to contacting various cancer cells with the compounds described herein at various concentrations. The cancer cell lines were maintained in culture conditions at 37° C. in an atmosphere of 5% CO2 in air. The cells growing in an exponential growth phase were harvested and counted for plating. Compounds were incubated in two cancer cell types representing multiple myeloma (MOLP-8) and triple negative breast cancer (DU4475). Cells were plated at an optimized cell numbers per well in 96-well plates and allowed to attach to the plates overnight at approximately 80% confluency.
(§3) After addition of compounds, plates were incubated for 7-day. At the end of incubation period on day 8, media was removed and replaced with a solution of CellTiter-Glo™ reagent (Promega®) according to protocol. Luminescence was read using an EnVision® multi-label plate reader (Perkin-Elmer®), and signal intensity was calculated relative to positive and negative control wells. Cisplatin was included as the positive control. A dose-response calculation was performed in a non-linear regression fit and by using the Hill equation to calculate a concentration-response curve and 50% inhibitory concentration (IC50) values for each compound.
(§4) The average IC50 values of compounds 1-15 in multiple myeloma (MOLP-8) and triple negative breast cancer (DU4475) cells are shown in Table 1.

A further test deals with DU4475. Put plainly: In vitro cell viability assay (CellTiter-Glo, ATP levels), triple negative breast cancer cells. The following applies: Homo sapiens, DU-4475, 168 h, 7-day incubation, CellTiter-Glo, average values; read-out: DU4475 IC50. It counts as cell-based. Here is the method:
as §1, §2, §3, §4
In general terms: In ATP-based viability assays light output follows the ATP content of the culture.

In test [1] the test system is HCT116 (colorectal cancer) cells. The experiment in a line: Resazurin-based cell viability assay using colorectal cancer cells. To be noted: Homo sapiens, HCT-116, 72 hr incubation. Here is the method: Determination of Potency of Compounds in Cell Viability Assay Using Colorectal Cancer Cells
The blue dye resazurin-based assay was performed to determine cell viability and used according to manufacture protocol (Sigma®). HCT116 (colorectal cancer) cells were seeded in the DMEM medium (10% FBS serum). Approximately 1,500 cells were plated per well in 96 well plates. Cells were allowed to grow at 37° C. for 24 hr in 5% CO2 environment in a humidified incubator. Serially diluted compounds (100 μL) were added to the culture plate after 24 hr. After addition of compounds, plates were incubated for 72 hr. Experiment was terminated at the designated incubation time by replacing the medium with 100 μL of 1 mM of resazurin (Sigma®) prepared in culture medium (DMEM) and were further incubated in culture conditions for 4-6 hours. Fluorescence was recorded using a multimodal plate reader (Biotek Synergy Neo®) at an excitation wavelength of 535 nm and emission wavelength of 590 nm to obtain relative fluorescence units. Data analysis was done by subtracting the background fluorescence (medium blank) value from each reading and then normalizing with the vehicle control (DMSO treated cells) to obtain percent survival/proliferation. IC50 was calculated from percent survival values using GraphPad Prism® (see Table 1).
In general terms: The colour change of resazurin is a common sign of viable cells or microbes.

On to `COc1cc(/C=C(\C)C(=O)N2CCC=CC2=O)cc2c1OCCO2` [Compound 55, 1-[(2E)-3-(8-methoxy-2,3-dihydro-1,4-benzodioxin-6-yl)-2-methylprop-2-enoyl]-5,6-dihydropyridin-2(1H)-one], for which the IC50 was 0.58 µM with MOLP-8, 0.83 µM in the test with DU4475 and 1.96 µM in test [1].
`O=C1C=CCCCN1C(=O)/C=C/c1cncc2ccccc12` [Compound 12, (E)-1-(3-(isoquinolin-4-yl)acryloyl)-1,5,6,7-tetrahydro-2H-azepin-2-one]: the IC50 with MOLP-8 turned out to be 0.89 µM; in the test with DU4475, 0.6 µM; in test [1], 0.96 µM.
Take `Cn1ccc(/C=C/C(=O)N2CCC=CC2=O)n1` [Compound 53, 1-[(2E)-3-(1-methyl-1H-pyrazol-3-yl)prop-2-enoyl]-5,6-dihydropyridin-2(1H)-one]: the IC50 was 0.56 µM in the test on MOLP-8, 0.73 µM in the test on DU4475 and 2.12 µM in test [1].
For `O=C1C=CCCN1C(=O)/C=C/C1CCN(S(=O)(=O)c2ccccc2)CC1` [Compound 57, (E)-1-(3-(1-(phenylsulfonyl)piperidin-4-yl)acryloyl)-5,6-dihydropyridin-2(1H)-one] the same measures were 0.68 µM, 0.53 µM and 1.36 µM.
Take `O=C1C=CCCN1C(=O)/C=C/c1cnn(C2CC2)c1` [Compound 86, (E)-1-(3-(1-cyclopropyl-1H-pyrazol-4-yl)acryloyl)-5,6-dihydropyridin-2(1H)-one]: the values for the IC50 (with MOLP-8; in the test on DU4475; in test [1]) were 0.85 µM, 1.67 µM and 3.83 µM, respectively.
As for `C/C(=C\C1CCN(CC2CC2)CC1)C(=O)N1CCC=CC1=O` [Compound 77, (E)-1-(3-(1-(cyclopropylmethyl)piperidin-4-yl)-2-methylacryloyl)-5,6-dihydropyridin-2(1H)-one], the figures for the IC50 (with MOLP-8; in the test on DU4475; in test [1]) were 3.34 µM, 5.44 µM and 7.5 µM, respectively.
With `Cc1n[nH]c(C)c1/C=C/C(=O)N1CCC=CC1=O` [Compound 81, (E)-1-(3-(3,5-dimethyl-1H-pyrazol-4-yl)acryloyl)-5,6-dihydropyridin-2(1H)-one], the IC50 in the test on MOLP-8 is 1.49 µM; in the test on DU4475 it was 2.7 µM; in test [1], 5.1 µM.
The like results for `COc1cc(/C=C/C(=O)N2CC(O)C=CC2=O)cc2c1OCCO2` (stereo not drawn) [Compound 25, 5-hydroxy-1-[(2E)-3-(8-methoxy-2,3-dihydro-1,4-benzodioxin-6-yl)prop-2-enoyl]-5,6-dihydropyridin-2(1H)-one] were, in that order, 0.37 µM, 1.77 µM and 4.61 µM.
The like results for `Cn1cc(/C=C(/C(=O)N2CCC=CC2=O)c2ccccc2)cn1` [Compound 83, 1-[(2E)-3-(1-methyl-1H-pyrazol-4-yl)-2-phenylprop-2-enoyl]-5,6-dihydropyridin-2(1H)-one] were, in that order, 2.75 µM, 4.84 µM and 11.1 µM.
The like results for `CC1(/C=C/C(=O)N2CCC=CC2=O)CCCCC1` [Compound 22, (E)-1-(3-(1-methylcyclohexyl)acryloyl)-5,6-dihydropyridin-2(1H)-one] were, in that order, 2.21 µM, 1.84 µM and 3.85 µM.
As for `O=C1C=CCCCN1C(=O)/C=C/c1cnccn1` [Compound 6, (E)-1-(3-(pyrazin-2-yl)acryloyl)-1,5,6,7-tetrahydro-2H-azepin-2-one], the IC50 amounted to 0.44 µM in the test on MOLP-8, 0.56 µM in the test with DU4475 and 2.4 µM in test [1].
Regarding `O=C1C=CCCCN1C(=O)/C=C/c1ccc2ccccc2n1` [Compound 15, (E)-1-(3-(quinolin-2-yl)acryloyl)-1,5,6,7-tetrahydro-2H-azepin-2-one], the results for the half-maximal inhibitory concentration (IC50) (with MOLP-8; in the test with DU4475; in test [1]) were 0.5 µM, 0.5 µM and 0.88 µM, respectively.
For `O=C1C=CCCCN1C(=O)/C=C/c1cnc2ccccc2c1` [Compound 3, (E)-1-(3-(quinolin-3-yl)acryloyl)-1,5,6,7-tetrahydro-2H-azepin-2-one], the IC50 in the test on MOLP-8 amounted to 0.36 µM; in the test with DU4475, 0.76 µM; in test [1], 1.7 µM.
The like results for `O=C1C=CCCN1C(=O)/C=C/c1cnn(CC(F)(F)F)c1` [Compound 90, 1 11-{(2E)-3-[1-(2,2,2-trifluoroethyl)-1H-pyrazol-4-yl]prop-2-enoyl}-5,6-dihydropyridin-2(1H)-one] were, in that order, 0.44 µM, 1.47 µM and 7.07 µM.
The like results for `O=C(/C=C/c1ncccn1)N1CCC=C(Br)C1=O` [Compound 40, 3-bromo-1-[(2E)-3-(pyrimidin-2-yl)prop-2-enoyl]-5,6-dihydropyridin-2(1H)-one] were, in that order, 0.04 µM, 0.1 µM and 0.36 µM.
In the case of `O=C1C=CCCN1C(=O)/C=C/C1CC1` [Compound 18, (E)-1-(3-cyclopropylacryloyl)-5,6-dihydropyridin-2(1H)-one], the values for the IC50 (in the test with MOLP-8; with DU4475; in test [1]) were 0.68 µM, 2.05 µM and 14.2 µM, respectively.
As for `Cc1noc(/C=C/C(=O)N2CCCC=CC2=O)n1` [Compound 17, (E)-1-(3-(3-methyl-1,2,4-oxadiazol-5-yl)acryloyl)-1,5,6,7-tetrahydro-2H-azepin-2-one], the IC50 with MOLP-8 stood at 0.33 µM; in the test with DU4475, 1.16 µM; in test [1], 5.93 µM.
The like results for `NC(=O)N1CCC(/C=C/C(=O)N2CCC=CC2=O)CC1` [Compound 68, (E)-4-(3-oxo-3-(6-oxo-3,6-dihydropyridin-1(2H)-yl)prop-1-en-1-yl)piperidine-1-carboxamide] were, in that order, 0.67 µM, 1.55 µM and 7.38 µM.
For `O=C1C=CCCN1C(=O)/C=C/C1CCN(c2ncccn2)CC1` [Compound 67, 1-{(2E)-3-[1-(pyrimidin-2-yl)piperidin-4-yl]prop-2-enoyl}-5,6-dihydropyridin-2(1H)-one] the same measures were 0.76 µM, 0.96 µM and 3.4 µM.
For `C/C(=C/C1CCN(C(=O)Nc2ccc(F)cc2)CC1)C(=O)N1CCC=CC1=O` [Compound 78] the same measures were 0.95 µM, 1.53 µM and 4.85 µM.
Turning to `C/C(=C/C1CCN(C(=O)OC(C)(C)C)CC1)C(=O)N1CCC=CC1=O` [Compound 71, (Z)-tert-butyl 4-(2-methyl-3-oxo-3-(2-oxo-5,6-dihydropyridin-1(2H)-yl)prop-1-enyl)piperidine-1-carboxylate], the IC50 with MOLP-8 stood at 3.91 µM; in the test on DU4475, 4.67 µM; in test [1], 13.6 µM.
For `O=C1C=CCCCN1C(=O)/C=C/c1ncccn1` [Compound 13, (E)-1-(3-(pyrimidin-2-yl)acryloyl)-1,5,6,7-tetrahydro-2H-azepin-2-one] the same measures were 0.51 µM, 0.67 µM and 1.3 µM.
For the compound `O=C1C=CCCN1C(=O)/C=C/c1cnc2c(c1)OCCO2` [Compound 24, (E)-1-(3-(2,3-dihydro-[1,4]dioxino[2,3-b]pyridin-7-yl)acryloyl)-5,6-dihydropyridin-2(1H)-one], the IC50 stood at 0.32 µM in the test with MOLP-8, 0.68 µM in the test on DU4475 and 1.9 µM in test [1].
For `O=C(Nc1ccc(F)cc1)N1CCC(/C=C/C(=O)N2CCC=CC2=O)CC1` [Compound 58, N-(4-fluorophenyl)-4-[(1E)-3-oxo-3-(6-oxo-3,6-dihydropyridin-1(2H)-yl)prop-1-en-1-yl]piperidine-1-carboxamide] the same measures were 0.38 µM, 0.44 µM and 1.1 µM.
The like results for `O=C1C=CCCN1S(=O)(=O)/C=C/c1ncccn1` [Compound 66, 1-{[(E)-2-(pyrimidin-2-yl)ethenyl]sulfonyl}-5,6-dihydropyridin-2(1H)-one] were, in that order, 0.21 µM, 0.95 µM and 3.11 µM.
Consider `CC(C)(C)OC(=O)N1CCC(/C=C/C(=O)N2CCC=CC2=O)CC1` [Compound 19, tert-butyl (E)-4-(3-oxo-3-(6-oxo-3,6-dihydropyridin-1(2H)-yl)prop-1-en-1-yl)piperidine-1-carboxylate], for which the IC50 in the test with MOLP-8 was 0.41 µM; with DU4475, 0.82 µM; in test [1] it was 1.97 µM.
